Earlier results in patent US5580957A, “GnRH analogs” (The Salk Institute for Biological Studies, priority 1994, dated 1996).

Key:
receptor (GnRH) = molecular target: T1, receptor (GnRH) (Homo sapiens, UniProt P30968); conditions: background statement
T1 sequence (P30968 1-328): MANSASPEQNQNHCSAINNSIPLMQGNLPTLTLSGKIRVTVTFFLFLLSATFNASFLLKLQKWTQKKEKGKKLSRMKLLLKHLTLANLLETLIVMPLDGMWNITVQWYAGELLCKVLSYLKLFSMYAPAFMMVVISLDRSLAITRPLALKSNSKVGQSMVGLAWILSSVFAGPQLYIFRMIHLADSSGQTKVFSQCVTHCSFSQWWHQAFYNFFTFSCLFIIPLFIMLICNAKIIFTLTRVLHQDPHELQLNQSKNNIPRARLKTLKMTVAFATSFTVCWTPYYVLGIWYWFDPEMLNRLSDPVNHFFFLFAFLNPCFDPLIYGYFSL

GnRH = conditions: background statement

binding strength to the receptor versus native hormone (receptor (GnRH)): greater binding strength
Substance: pGlu-His-Trp-Ser-Tyr-D-Ala-Leu-Arg-Pro-Gly-NH2 [[D-Ala^6]-GnRH]
biological potency versus native hormone (GnRH): greater biological potency than the native hormone
